Where a name gives a salt, the structure may show the parent alone.
Assays:
[1] = tested on: cerebellar granule cells (CGC); test: Antiapoptotic capacity (rescue) in cerebellar granule cells induced into apoptosis by cytosine arabinoside (CGC assay); type: cell-based, Wistar rat; conditions: for Rescue by Amino Acids and Esters in the CGC Assay, Rescue (overall yes/no) / Rescue by Amino Phosphonic Acids in the CGC Assay, Rescue (overall yes/no) / Rescue by Amino Nitriles in the CGC Assay, Rescue (overall yes/no) / Rescue by Amino Tetrazoles in the CGC Assay, Rescue (overall yes/no): overall over 10^−6, 10^−9, 10^−12 M
From the text: In Vitro Protocol for Assessing the Antiapoptotic Capacity of Various Compounds in Cerebellar Granule Cells
Cultures of cerebellar granule cells (CGC) can be induced into apoptosis by the addition of a high concentration of cytosine arabinoside (AraC). It has been shown that this is a p53 dependent apoptosis. We have measured the antiapoptotic effect of some amino acids, amino esters, amino phosphonic acids, amino nitriles and amino tetrazoles using this system.
Cultures of CGC were obtained from 6-8 day old Wistar rat pups. Cultures were grown on glass in 35 mm petri dishes for three days and then used for experiments. Aliquots (20 ul) of drug solutions (AraC, anti-apoptotic drugs, drug vehicles) were added to the medium of the culture. 24 Hours later the cultures were fixed with FAM, and stained with bis-benzamide. Normal and apoptotic nuclei were counted to a total of 90-120 cells per culture.

[2] = compound 10^−9 M, AraC 300 uM-induced apoptosis, 24 hours
[3] = compound 10^−12 M, AraC 300 uM-induced apoptosis, 24 hours
[4] = compound 10^−6 M, AraC 300 uM-induced apoptosis, 24 hours

## CC(C)NCCC(=O)O.Cl [2-Propyl (B-Alanines), 3-(2-Propylamino)propionic acid hydrochloride]
other
  melting point: 154 to 155 °C
[1]; [2]
  Rescue by Amino Acids and Esters in the CGC Assay, 10^−9 M: R
[1]; [3]
  Rescue by Amino Acids and Esters in the CGC Assay, 10^−12 M: R
[1]
  Rescue by Amino Acids and Esters in the CGC Assay, Rescue (overall yes/no): yes

## CCCCC[C@H](C)NCCP(=O)(O)O.Cl [S-2-Heptyl (Amino Phosphonic Acids), (S)-2-(2-Heptylamino)ethanephosphonic acid hydrochloride]
[1]; [2]
  Rescue by Amino Phosphonic Acids in the CGC Assay, 10^−9 M: R
[1]; [3]
  Rescue by Amino Phosphonic Acids in the CGC Assay, 10^−12 M: R
[1]
  Rescue by Amino Phosphonic Acids in the CGC Assay, Rescue (overall yes/no): yes

## CCCCC[C@H](C)NCC#N.Cl [S-2-Heptyl (Acetonitriles), (S)-2-(2-Heptylamino)acetonitrile hydrochloride]
other
  melting point: 140 °C
[1]; [2]
  Rescue by Amino Nitriles in the CGC Assay, 10^−9 M: R
[1]; [3]
  Rescue by Amino Nitriles in the CGC Assay, 10^−12 M: R
[1]
  Rescue by Amino Nitriles in the CGC Assay, Rescue (overall yes/no): yes

## CCCCCCNCC#N.Cl [1-Hexyl (Acetonitriles), 2-(1-Hexylamino)acetonitrile hydrochloride]
[1]; [2]
  Rescue by Amino Nitriles in the CGC Assay, 10^−9 M: R
[1]; [3]
  Rescue by Amino Nitriles in the CGC Assay, 10^−12 M: R
[1]
  Rescue by Amino Nitriles in the CGC Assay, Rescue (overall yes/no): yes

## CCCCCCNCC(=O)O.Cl [1-Hexyl (Glycines), 2-(1-Hexylamino)acetic acid hydrochloride]
[1]; [2]
  Rescue by Amino Acids and Esters in the CGC Assay, 10^−9 M: R
[1]
  Rescue by Amino Acids and Esters in the CGC Assay, Rescue (overall yes/no): yes

## CC(C)NCC#N.Cl [2-Propyl (Acetonitriles), 2-(2-Propylamino)acetonitrile hydrochloride]
other
  melting point: 166 to 167 °C
[1]; [4]
  Rescue by Amino Nitriles in the CGC Assay, 10^−6 M: R
[1]; [2]
  Rescue by Amino Nitriles in the CGC Assay, 10^−9 M: R
[1]; [3]
  Rescue by Amino Nitriles in the CGC Assay, 10^−12 M: R
[1]
  Rescue by Amino Nitriles in the CGC Assay, Rescue (overall yes/no): yes

## CCCCCCNCCC(=O)OC [1-Hexyl (B-Alaninates), Methyl 3-(1-hexylamino)propionate hydrochloride]
[1]; [2]
  Rescue by Amino Acids and Esters in the CGC Assay, 10^−9 M: R
[1]; [3]
  Rescue by Amino Acids and Esters in the CGC Assay, 10^−12 M: R
[1]
  Rescue by Amino Acids and Esters in the CGC Assay, Rescue (overall yes/no): yes

## CCCCC[C@H](C)NCCC#N.Cl [S-2-heptyl (Propionitriles), (S)-3-(2-Heptylamino)propionitrile hydrochloride]
other
  melting point: 133 to 134 °C
[1]
  Rescue by Amino Nitriles in the CGC Assay, Rescue (overall yes/no): no

## CCCCC[C@H](C)NCCC(=O)OC (stereo in doubt) (as salt: hydrochloride)
other
  melting point: 89.5 to 90.5 °C

## CCCCC[C@H](C)NCCC(=O)O.Cl [S-2-Heptyl (B-Alanines), (S)-3-(2-Heptylamino)propionic acid hydrochloride]
other
  melting point: 56 to 58 °C
[1]
  Rescue by Amino Acids and Esters in the CGC Assay, Rescue (overall yes/no): no

## CC(C)NCCC#N.Cl [2-Propyl (Propionitriles), 3-(2-Propylamino)propionitrile hydrochloride]
[1]
  Rescue by Amino Nitriles in the CGC Assay, Rescue (overall yes/no): no

## CCCCCC(C)NCC(=O)O (stereo in doubt) [R-2-Heptyl (Glycines), (R)-2-(2-Heptylamino)acetic acid hydrochloride]
[1]
  Rescue by Amino Acids and Esters in the CGC Assay, Rescue (overall yes/no): no

## CCC(C)(C)NCCC#N.Cl [tert-Amyl (Propionitriles), 3-(t-Amylamino)propionitrile hydrochloride]
other
  melting point: 199 to 200 °C
[1]
  Rescue by Amino Nitriles in the CGC Assay, Rescue (overall yes/no): no

## CCCCCC(C)N(C)CCC#N (stereo in doubt) (as salt: hydrochloride) [R-2-Heptyl-N-methyl (Propionitriles), (R)-3-(2-Heptylmethylamino)propionitrile hydrochloride]
other
  melting point: 98 to 98.5 °C

## CCCCCC(C)NCCc1nnn[nH]1 (stereo in doubt) [R-2-Heptyl (Amino Tetrazoles), (R)-2-(2-Heptylamino)ethane-5-tetrazole hydrochloride]
[1]; [4]
  Rescue by Amino Tetrazoles in the CGC Assay, 10^−6 M: R
[1]; [2]
  Rescue by Amino Tetrazoles in the CGC Assay, 10^−9 M: R
[1]; [3]
  Rescue by Amino Tetrazoles in the CGC Assay, 10^−12 M: R
[1]
  Rescue by Amino Tetrazoles in the CGC Assay, Rescue (overall yes/no): yes

## CCCCCCNCCC#N.Cl [1-Hexyl (Propionitriles), 3-(1-Hexylamino)propionitrile hydrochloride]
other
  melting point: 188 to 189 °C
[1]
  Rescue by Amino Nitriles in the CGC Assay, Rescue (overall yes/no): no

## CCC[C@@H](C)NCCP(=O)(O)O [R-2-Pentyl (Amino Phosphonic Acids), (R)-2-(2-Pentylamino)ethanephosphonic acid]
[1]; [4]
  Rescue by Amino Phosphonic Acids in the CGC Assay, 10^−6 M: R
[1]
  Rescue by Amino Phosphonic Acids in the CGC Assay, Rescue (overall yes/no): yes

## CCCCCC(C)NCCC#N (stereo in doubt) [R-2-Heptyl (Propionitriles), (R)-3-(2-Heptylamino)propionitrile hydrochloride]
[1]; [2]
  Rescue by Amino Nitriles in the CGC Assay, 10^−9 M: R
[1]; [3]
  Rescue by Amino Nitriles in the CGC Assay, 10^−12 M: R
[1]
  Rescue by Amino Nitriles in the CGC Assay, Rescue (overall yes/no): yes

## CC(C)N(C)CCC(=O)O [2-Propyl-N-methyl (B-Alanines), 3-(2-Propylmethylamino)propionic acid]
[1]; [4]
  Rescue by Amino Acids and Esters in the CGC Assay, 10^−6 M: R
[1]; [2]
  Rescue by Amino Acids and Esters in the CGC Assay, 10^−9 M: R
[1]
  Rescue by Amino Acids and Esters in the CGC Assay, Rescue (overall yes/no): yes

## CCCCC[C@H](C)NCC(=O)O.Cl [S-2-Heptyl (Glycines), (S)-2-(2-Heptylamino)acetic acid hydrochloride]
[1]; [4]
  Rescue by Amino Acids and Esters in the CGC Assay, 10^−6 M: R
[1]; [2]
  Rescue by Amino Acids and Esters in the CGC Assay, 10^−9 M: R
[1]; [3]
  Rescue by Amino Acids and Esters in the CGC Assay, 10^−12 M: R
[1]
  Rescue by Amino Acids and Esters in the CGC Assay, Rescue (overall yes/no): yes

## CCCCC[C@@H](C)N(C)CCC(=O)O.Cl [R-2-Heptyl-N-methyl (B-Alanines), (R)-3-(2-Heptylmethylamino)propionic acid hydrochloride]
[1]; [4]
  Rescue by Amino Acids and Esters in the CGC Assay, 10^−6 M: R
[1]; [2]
  Rescue by Amino Acids and Esters in the CGC Assay, 10^−9 M: R
[1]; [3]
  Rescue by Amino Acids and Esters in the CGC Assay, 10^−12 M: R
[1]
  Rescue by Amino Acids and Esters in the CGC Assay, Rescue (overall yes/no): yes

## CC(C)NCC(=O)O.Cl [2-Propyl (Glycines), 2-(2-Propylamino)acetic acid hydrochloride]
[1]; [4]
  Rescue by Amino Acids and Esters in the CGC Assay, 10^−6 M: R
[1]
  Rescue by Amino Acids and Esters in the CGC Assay, Rescue (overall yes/no): yes

## CCCCCCNCCP(=O)(O)O.Cl [1-Hexyl (Amino Phosphonic Acids), 2-(1-Hexylamino)ethanephosphonic acid hydrochloride]
[1]
  Rescue by Amino Phosphonic Acids in the CGC Assay, Rescue (overall yes/no): no

## CCCCCC(C)NCCC(=O)O (stereo in doubt) (as salt: hydrochloride) [R-2-Heptyl (B-Alanines), (R)-3-(2-Heptylamino)propionic acid hydrochloride]
other
  melting point: 57 to 58 °C

## CCCCCC(C)N(C)CCC#N (stereo in doubt) [R-2-Heptyl-N-methyl (Propionitriles), (R)-3-(2-Heptylmethylamino)propionitrile hydrochloride]
[1]; [2]
  Rescue by Amino Nitriles in the CGC Assay, 10^−9 M: R
[1]
  Rescue by Amino Nitriles in the CGC Assay, Rescue (overall yes/no): yes

## CCOC(=O)CNC(C)C (as salt: hydrochloride)
other
  melting point: 120 to 121 °C

## CCCCCC(C)NCC#N (stereo in doubt) [R-2-heptyl (Acetonitriles), (R)-2-(2-Heptylamino)acetonitrile hydrochloride]
[1]
  Rescue by Amino Nitriles in the CGC Assay, Rescue (overall yes/no): no

## CCCCC[C@@H](C)N(C)CCC(=O)OC.Cl [R-2-Heptyl-N-methyl (B-Alaninates), (R)-Methyl 3-(2-heptylmethylamino)propionate hydrochloride]
[1]; [4]
  Rescue by Amino Acids and Esters in the CGC Assay, 10^−6 M: R
[1]; [2]
  Rescue by Amino Acids and Esters in the CGC Assay, 10^−9 M: R
[1]; [3]
  Rescue by Amino Acids and Esters in the CGC Assay, 10^−12 M: R
[1]
  Rescue by Amino Acids and Esters in the CGC Assay, Rescue (overall yes/no): yes

## CCCCC[C@@H](C)NCCP(=O)(O)O.Cl [R-2-Heptyl (Amino Phosphonic Acids), (R)-2-(2-Heptylamino)ethanephosphonic acid hydrochloride]
[1]
  Rescue by Amino Phosphonic Acids in the CGC Assay, Rescue (overall yes/no): yes*

## (S)-2-(2-Heptylamino)ethane-5-tetrazole hydrochloride [S-2-Heptyl (Amino Tetrazoles)]
[1]
  Rescue by Amino Tetrazoles in the CGC Assay, Rescue (overall yes/no): no

## CCCCCC(C)NCCC(=O)O (stereo in doubt) [R-2-Heptyl (B-Alanines), (R)-3-(2-Heptylamino)propionic acid hydrochloride]
[1]; [2]
  Rescue by Amino Acids and Esters in the CGC Assay, 10^−9 M: R
[1]; [3]
  Rescue by Amino Acids and Esters in the CGC Assay, 10^−12 M: R
[1]
  Rescue by Amino Acids and Esters in the CGC Assay, Rescue (overall yes/no): yes

## COC(=O)CCNC(C)C.Cl [2-Propyl (B-Alaninates), Methyl 3-(2-propylamino)propionate hydrochloride]
[1]
  Rescue by Amino Acids and Esters in the CGC Assay, Rescue (overall yes/no): no

## CCC[C@@H](C)NCC#N [R-2-Pentyl (Acetonitriles), (R)-2-(2-Pentylamino)acetonitrile]
[1]; [2]
  Rescue by Amino Nitriles in the CGC Assay, 10^−9 M: R
[1]
  Rescue by Amino Nitriles in the CGC Assay, Rescue (overall yes/no): yes

## CCCCCC(C)NCC#N (stereo in doubt) (as salt: hydrochloride) [R-2-heptyl (Acetonitriles), (R)-2-(2-Heptylamino)acetonitrile hydrochloride]
other
  melting point: 152 to 153 °C

## CCCCCC(C)NCCC#N (stereo in doubt) (as salt: hydrochloride) [R-2-Heptyl (Propionitriles), (R)-3-(2-Heptylamino)propionitrile hydrochloride]
other
  melting point: 134 to 135 °C
